The target in one test is MCL-1 (Homo sapiens (Human), UniProt Q07820). The test can be described thus: Cell free Mcl-1:Bim affinity assay (fluorescence polarization competition). To be noted: 15 nM MCL-1, 5 nM FITC-Bim, 1 hour at room temperature; class symbols; read-out: BIM_Ki. The test is classed as binding. Put shortly:
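Compounds competed with FITC-labelled Bim peptide (5 nM) for MCL-1 (15 nM) in HEPES/NaCl buffer with 1% DMSO, 1 h at room temperature. Fluorescence polarization (535 nm emission) gave % inhibition versus DMSO and positive controls; IC50 from 10-point curves, converted to Ki by the Nikolovska-Coleska equation.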
For orientation: In fluorescence polarisation assays a small probe gives low polarisation when free and higher when bound to something large.

The test system of the next test is H929 cells. The test can be described thus: Cell viability assay (H929 10 FBS). The settings on record: Homo sapiens, NCI-H929, 24 hours, read-out: H929_10FBS IC50. The test is classed as cell-based. The method, boiled down:
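H929 cells, 4000/well, in RPMI 1640 with 10% FBS, sodium pyruvate, HEPES and glucose were exposed to compound 24 h at 37 °C. Viability read as luminescence after 30-60 min at RT with CellTiter-Glo or ATPlite 1 Step.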

Where only a bound is given, the exact number is not on record here.

Sequence of MCL-1 (Q07820 whole entry): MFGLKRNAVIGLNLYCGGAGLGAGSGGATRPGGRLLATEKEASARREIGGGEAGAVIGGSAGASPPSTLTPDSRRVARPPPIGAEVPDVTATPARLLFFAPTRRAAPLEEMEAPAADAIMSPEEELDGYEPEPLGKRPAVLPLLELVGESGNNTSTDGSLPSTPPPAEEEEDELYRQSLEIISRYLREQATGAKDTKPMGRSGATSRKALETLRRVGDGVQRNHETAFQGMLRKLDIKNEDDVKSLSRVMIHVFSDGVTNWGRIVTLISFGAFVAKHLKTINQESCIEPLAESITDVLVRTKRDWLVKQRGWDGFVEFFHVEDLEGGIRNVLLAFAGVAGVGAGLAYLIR

The IC50 is the concentration at which inhibition is half-maximal. As for `CO[C@@H]1/C=C/CC[C@@H](CO)C(=O)NS(=O)(=O)c2ccc3c(c2)N(C[C@@H]2CC[C@H]21)C[C@@]1(CCCc2cc(Cl)ccc21)CO3` [Example 95, (3R,6R,7R,8E,12S,22S)-6′-Chloro-12-(hydroxymethyl)-7-methoxy-15,15-dioxo-spiro[20-oxa-15-thia-1,14-diazatetracyclo[14.7.2.03,6.019,24]pentacosa-8,16,18,24-tetraene-22,1′-tetralin]-13-one], on MCL-1, the Ki was 1 to 100 nM. Besides, in the test with H929 cells, the IC50 was over 1000 nM.

As for `CN(C)C1CN(C(=O)O[C@H]2/C=C/COC(C)(C)C(=O)NS(=O)(=O)c3ccc4c(c3)N(C[C@@H]3CC[C@H]32)C[C@@]2(CCCc3cc(Cl)ccc32)CO4)C1` [Example 52, [(3R,6R,7S,8E,22S)-6′-Chloro-12,12-dimethyl-13,15,15-trioxo-spiro[11,20-dioxa-15-thia-1,14-diazatetracyclo[14.7.2.03,6.019,24]pentacosa-8,16,18,24-tetraene-22,1′-tetralin]-7-yl] 3-(dimethylamino)azetidine-1-carboxylate], the Ki at MCL-1 is under 1 nM. Besides, in the test on H929 cells, the IC50 is under 500 nM.

As for `CN1C/C=C/[C@H](OC(=O)NCC2CC2)[C@@H]2CC[C@H]2CN2C[C@@]3(CCCc4cc(Cl)ccc43)COc3ccc(cc32)S(=O)(=O)NC(=O)C1(C)C` [Example 205, [(3R,6R,7S,8E,22S)-6′-Chloro-11,12,12-trimethyl-13,15,15-trioxo-spiro[20-oxa-15-thia-1,11,14-triazatetracyclo[14.7.2.03,6.019,24]pentacosa-8,16,18,24-tetraene-22,1′-tetralin]-7-yl] N-(cyclopropylmethyl)carbamate], the Ki on MCL-1 was 1 to 100 nM. Moreover, the IC50 with H929 cells was under 500 nM.

As to `CO[C@H]1/C=C/COC2(CC2)C(=O)NS(=O)(=O)c2ccc3c(c2)N(C[C@@H]2CC[C@H]21)C[C@@]1(CCCc2cc(Cl)ccc21)CO3` [Example 28, (3R,6R,7S,8E,22S)-6′-Chloro-7-methoxy-12,12-ethylene-15,15-dioxo-spiro[[11,20]dioxa-15-thia-1,14-diazatetracyclo[14.7.2.03,6.019,24]pentacosa[8,16(25),17,19(24)]tetraene-22,1′-tetralin]-13-one], the Ki on MCL-1 was under 1 nM. The IC50 with H929 cells is over 1000 nM.

For `CC1(C)OC/C=C/[C@H](OC(=O)N2CC(F)(F)C2)[C@@H]2CC[C@H]2CN2C[C@@]3(CCCc4cc(Cl)ccc43)COc3ccc(cc32)S(=O)(=O)NC1=O` [Example 49, [(3R,6R,7S,8E,22S)-6′-Chloro-12,12-dimethyl-13,15,15-trioxo-spiro[11,20-dioxa-15-thia-1,14-diazatetracyclo[14.7.2.03,6.019,24]pentacosa-8,16,18,24-tetraene-22,1′-tetralin]-7-yl] 3,3-difluoroazetidine-1-carboxylate], on MCL-1, the Ki was under 1 nM. In addition, in the test on H929 cells, the IC50 is under 500 nM.

As for `CO[C@@H]1/C=C/CCCCC(=O)NS(=O)(=O)c2ccc3c(c2)N(C[C@@H]2CC[C@H]21)C[C@@]1(CCCc2cc(Cl)ccc21)CO3` [Example 73, (3R,6R,7R,8E,23S)-6′-Chloro-7-methoxy-16,16-dioxo-spiro[21-oxa-16-thia-1,15-diazatetracyclo[15.7.2.03,6.020,25]hexacosa-8,17,19,25-tetraene-23,1′-tetralin]-14-one], the Ki at MCL-1 is 1 to 100 nM. In addition, in the test on H929 cells, the IC50 was over 1000 nM.

Regarding `CC(C)N1CCN(CC2(O)/C=C/COC(C)(C)C(=O)NS(=O)(=O)c3ccc4c(c3)N(C[C@@H]3CC[C@H]32)C[C@@]2(CCCc3cc(Cl)ccc32)CO4)CC1` (stereo partly drawn) [Example 109, (3R,6R,8E,22S)-6′-Chloro-7-hydroxy-7-[(4-isopropylpiperazin-1-yl)methyl]-12,12-dimethyl-15,15-dioxo-spiro[11,20-dioxa-15-thia-1,14-diazatetracyclo[14.7.2.03,6.019,24]pentacosa-8,16,18,24-tetraene-22,1′-tetralin]-13-one], the Ki at MCL-1 lay in the range of 1 to 100 nM. Besides, the IC50 in the test on H929 cells is over 1000 nM.

Take `CO[C@@H]1/C=C/CO[C@H](C)C(=O)NS(=O)(=O)c2ccc3c(c2)N(C[C@@H]2CC[C@H]21)C[C@@]1(CCCc2cc(Cl)ccc21)CO3` [Example 115, (3R,6R,7R,8E,12R,22S)-6′-Chloro-7-methoxy-12-methyl-15,15-dioxo-spiro[11,20-dioxa-15-thia-1,14-diazatetracyclo[14.7.2.03,6.019,24]pentacosa-8,16,18,24-tetraene-22,1′-tetralin]-13-one]: the Ki at MCL-1 lay in the range of 1 to 100 nM. Also, in the test on H929 cells, the IC50 was over 1000 nM.

Consider `CON(C)C(=O)O[C@H]1/C=C/COC(C)(C)C(=O)NS(=O)(=O)c2ccc3c(c2)N(C[C@@H]2CC[C@H]21)C[C@@]1(CCOc2cc(Cl)ccc21)CO3` [Example 306, [(3R,6R,7S,8E,22S)-7′-Chloro-12,12-dimethyl-13,15,15-trioxo-spiro[11,20-dioxa-15-thia-1,14-diazatetracyclo[14.7.2.03,6.019,24]pentacosa-8,16,18,24-tetraene-22,4′-chromane]-7-yl] N-methoxy-N-methyl-carbamate], for which the Ki on MCL-1 was under 1 nM. In the test with H929 cells, the IC50 was under 500 nM.

In the case of `CNCCNC(=O)O[C@H]1/C=C/COC(C)(C)C(=O)NS(=O)(=O)c2ccc3c(c2)N(C[C@@H]2CC[C@H]21)C[C@@]1(CCCc2cc(Cl)ccc21)CO3` [Example 157, [(3R,6R,7S,8E,22S)-6′-Chloro-12,12-dimethyl-13,15,15-trioxo-spiro[11,20-dioxa-15-thia-1,14-diazatetracyclo[14.7.2.03,6.019,24]pentacosa-8,16,18,24-tetraene-22,1′-tetralin]-7-yl] N-[2-(methylamino)ethyl]carbamate], the Ki at MCL-1 is under 1 nM. The IC50 in the test with H929 cells is under 500 nM.

Consider `CC1(C)OC/C=C/[C@H](OC(=O)NCC2CC2)[C@@H]2CC[C@H]2CN2C[C@@]3(CCCc4cc(Cl)ccc43)COc3ccc(cc32)S(=O)(=O)NC1=O` [Example 183, [(3R,6R,7S,8E,22S)-6′-Chloro-12,12-dimethyl-13,15,15-trioxo-spiro[11,20-dioxa-15-thia-1,14-diazatetracyclo[14.7.2.03,6.019,24]pentacosa-8,16,18,24-tetraene-22,1′-tetralin]-7-yl] N-(cyclopropylmethyl)carbamate], for which the Ki on MCL-1 was under 1 nM. In the test on H929 cells, the IC50 was under 500 nM.

For the compound `O=C(O[C@H]1/C=C/COC2(CCC2)C(=O)NS(=O)(=O)c2ccc3c(c2)N(C[C@@H]2CC[C@H]21)C[C@@]1(CCCc2cc(Cl)ccc21)CO3)N1CCC1` [Example 232, [(3R,6R,7S,8E,22S)-6′-Chloro-12,12-(1,3-propylene)-13,15,15-trioxo-spiro[11,20-dioxa-15-thia-1,14-diazatetracyclo[14.7.2.03,6.019,24]pentacosa-8,16(25),17,19(24)-tetraene-22,1′-tetralin]-7-yl] N,N-1,3-propylene carbamate], the Ki on MCL-1 was under 1 nM. For the same compound, in the test with H929 cells, the IC50 is under 500 nM.

Consider `CO[C@H]1/C=C/CNC(C)(C)C(=O)NS(=O)(=O)c2ccc3c(c2)N(C[C@@H]2CC[C@H]21)C[C@@]1(CCCc2cc(Cl)ccc21)CO3` [Example 136, (3R,6R,7S,8E,22S)-6′-Chloro-7-methoxy-12,12-dimethyl-15,15-dioxo-spiro[20-oxa-15-thia-1,11,14-triazatetracyclo[14.7.2.03,6.019,24]pentacosa-8,16,18,24-tetraene-22,1′-tetralin]-13-one], for which, at MCL-1, the Ki fell in the range of 1 to 100 nM. Moreover, the IC50 in the test with H929 cells was over 1000 nM.

On to `O=C1Cn2ccc(n2)CC(=O)N2CCC(C2)CN2C[C@@]3(CCCc4cc(Cl)ccc43)COc3ccc(cc32)S(=O)(=O)N1` (stereo partly drawn) [Example 296, (23S)-6′-Chloro-16,16-dioxo-spiro[21-oxa-16-thia-1,6,12,15,27-pentazapentacyclo[15.7.2.13,6.19,12.020,25]octacosa-9(27),10,17,19,25-pentaene-23,1′-tetralin]-7,14-dione], for which, on MCL-1, the Ki is 1 to 100 nM. In the test with H929 cells, the IC50 was under 500 nM.

Turning to `CC1(C)OC/C=C/[C@H](OC(=O)NCCN2CCC(O)CC2)[C@@H]2CC[C@H]2CN2C[C@@]3(CCCc4cc(Cl)ccc43)COc3ccc(cc32)S(=O)(=O)NC1=O` [Example 150, [(3R,6R,7S,8E,22S)-6′-Chloro-12,12-dimethyl-13,15,15-trioxo-spiro[11,20-dioxa-15-thia-1,14-diazatetracyclo[14.7.2.03,6.019,24]pentacosa-8,16,18,24-tetraene-22,1′-tetralin]-7-yl] N-[2-(4-hydroxy-1-piperidyl)ethyl]carbamate], the Ki on MCL-1 is under 1 nM. Further, the IC50 with H929 cells was under 1000 nM.

For `CC1(C)OC/C=C/[C@H](OC(=O)N2CC(O)C2)[C@@H]2CC[C@H]2CN2C[C@@]3(CCCc4cc(Cl)ccc43)COc3ccc(cc32)S(=O)(=O)NC1=O` [Example 153], the Ki on MCL-1 is under 1 nM. Further, the IC50 with H929 cells was under 500 nM.

`CN(C)C(=O)CO[C@@H]1/C=C/COC(C)(C)C(=O)NS(=O)(=O)c2ccc3c(c2)N(C[C@@H]2CC[C@H]21)C[C@@]1(CCCc2cc(Cl)ccc21)CO3` [Example 141, 2-[(3R,6R,7R,8E,22S)-6′-Chloro-12,12-dimethyl-13,15,15-trioxo-spiro[11,20-dioxa-15-thia-1,14-diazatetracyclo[14.7.2.03,6.019,24]pentacosa-8,16,18,24-tetraene-22,1′-tetralin]-7-yl]oxy-N,N-dimethyl-acetamide]: the Ki at MCL-1 was under 1 nM. In the test with H929 cells, the IC50 is under 500 nM.

Source of the values: patent US11130769B2 (Prelude Therapeutics Incorporated, priority 2018, dated 2021).
